According to patent US20180099931A1 (AbbVie S.à.r.l., priority 2016, published 2018):
Like-named read-outs stand apart in the source and are kept apart here.

Target: T1, F508delCFTR (Homo sapiens, UniProt P13569, DEL508-508)
T1 construct: expressed in transfected cells; host or cells: CFBE41o- human lung-derived epithelial cells (CFBE4lo-F508delCFTR-HRP), doxycycline-inducible
Assay: Cell Surface Expression-Horse Radish Peroxidase (CSE-HRP) Assay;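 as to Maximum % activity (with co-corrector): co-corrector and positive control are both the same reference corrector at 2 µM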;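 as to Maximum % activity (without co-corrector): percent of the 2 µM on-plate positive control corrector response above DMSO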
Format: cell-based
Details: for Maximum % activity (with co-corrector) / Emax: maximum at any tested concentration, normalized to on-plate positive control; for Emax: read-out: Maximum % activity (without co-corrector)
Method: Cell Surface Expression-Horse Radish Peroxidase (CSE-HRP) Assay;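 as to Maximum % activity (with co-corrector): co-corrector and positive control are both the same reference corrector at 2 µM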;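 as to Maximum % activity (without co-corrector): percent of the 2 µM on-plate positive control corrector response above DMSO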
The development was achieved by expressing the F508delCFTR mutation along with a horseradish peroxidase (HRP) in the fourth exofacial loop, and then measuring the HRP activity using luminescence readout from these cells, CFBE4lo-F508delCFTR-HRP, that were incubated overnight with the test corrector compounds, either without or with the co-corrector. […] The test compounds were then added either without or with a co-corrector at the required concentrations and further incubated for 18-24 hours at 33° C. The highest concentration tested was 20 μM with an 8-point concentration response curve using a 3-fold dilution in both the test compound without or with the co-corrector. Three replicate plates were run to determine one EC50. All plates contained negative controls (dimethyl sulfoxide, DMSO) and positive control (2 μM of 3-[(2R,4R)-4-({[1-(2,2-difluoro-1,3-benzodioxol-5-yl)cyclopropyl]carbonyl}amino)-7-methoxy-3,4-dihydro-2H-chromen-2-yl]benzoic acid) as well as on-plate concentration response of the positive control. […] The raw counts from the experiment were analyzed using Accelrys® Assay Explorer v3.3.
1−[3*SDPositive Control+3*SDNegative Control/Absolute(MeanPositive Control−MeanNegative Control)]
wherein “SD” is standard deviation.
The % activity measured at each of the 8 test concentrations of the test compound added either without or with a co-corrector (2 μM of 3-[(2R,4R)-4-({[1-(2,2-difluoro-1,3-benzodioxol-5-yl)cyclopropyl]carbonyl}amino)-7-methoxy-3,4-dihydro-2H-chromen-2-yl]benzoic acid) was normalized to the on-plate positive control using the following formulae:
% activity(Test compound without co-corrector)=[(test compound without co-corrector response−DMSO response)/(positive control response−DMSO response)]*100
% activity(Test compound with co-corrector)=[(test compound with co-corrector response−DMSO response)/(positive control response−DMSO response)]*100
The maximum % activity achieved for the test compound either without or with a co-corrector at any tested concentration is presented in Table 4 along with the respective EC50's calculated using the following general sigmoidal curve with variable Hill slope equation (described as Model 42 in the Accelrys® Assay Explorer v3.3 software):
General sigmoidal curve with concentration, response, top, bottom, EC50 and Hill slope. This model describes a sigmoidal curve with an adjustable baseline, a. The equation can be used to fit curves where response is either increasing or decreasing with respect to the independent variable, “x”.
“x” is a concentration of drug under test. “y” is the response. “a” is the maximum response, and “d” is the minimum response “c” is the inflection point (EC50) for the curve. That is, “y” is halfway between the lower and upper asymptotes when x=c. “b” is the slope-factor or Hill coefficient. The sign of b is positive when the response increases with increasing dose and is negative when the response decreases with increasing dose (inhibition).

[1] = CSE-HRP, test compound without co-corrector, read-out: EC50 (without co-corrector)
[2] = CSE-HRP, with co-corrector (2 μM of 3-[(2R,4R)-4-({[1-(2,2-difluoro-1,3-benzodioxol-5-yl)cyclopropyl]carbonyl}amino)-7-methoxy-3,4-dihydro-2H-chromen-2-yl]benzoic acid), read-out: EC50 (with co-corrector)
[3] = CSE-HRP, with co-corrector (2 μM)
[4] = test compound without co-corrector, read-out: EC50 (without co-corrector)
[5] = with co-corrector (2 μM of 3-[(2R,4R)-4-({[1-(2,2-difluoro-1,3-benzodioxol-5-yl)cyclopropyl]carbonyl}amino)-7-methoxy-3,4-dihydro-2H-chromen-2-yl]benzoic acid), read-out: EC50 (with co-corrector)
[6] = test compound without co-corrector
[7] = with co-corrector (2 μM of 3-[(2R,4R)-4-({[1-(2,2-difluoro-1,3-benzodioxol-5-yl)cyclopropyl]carbonyl}amino)-7-methoxy-3,4-dihydro-2H-chromen-2-yl]benzoic acid)

T1 sequence (P13569 with tags, fused parts or gaps DEL508-508): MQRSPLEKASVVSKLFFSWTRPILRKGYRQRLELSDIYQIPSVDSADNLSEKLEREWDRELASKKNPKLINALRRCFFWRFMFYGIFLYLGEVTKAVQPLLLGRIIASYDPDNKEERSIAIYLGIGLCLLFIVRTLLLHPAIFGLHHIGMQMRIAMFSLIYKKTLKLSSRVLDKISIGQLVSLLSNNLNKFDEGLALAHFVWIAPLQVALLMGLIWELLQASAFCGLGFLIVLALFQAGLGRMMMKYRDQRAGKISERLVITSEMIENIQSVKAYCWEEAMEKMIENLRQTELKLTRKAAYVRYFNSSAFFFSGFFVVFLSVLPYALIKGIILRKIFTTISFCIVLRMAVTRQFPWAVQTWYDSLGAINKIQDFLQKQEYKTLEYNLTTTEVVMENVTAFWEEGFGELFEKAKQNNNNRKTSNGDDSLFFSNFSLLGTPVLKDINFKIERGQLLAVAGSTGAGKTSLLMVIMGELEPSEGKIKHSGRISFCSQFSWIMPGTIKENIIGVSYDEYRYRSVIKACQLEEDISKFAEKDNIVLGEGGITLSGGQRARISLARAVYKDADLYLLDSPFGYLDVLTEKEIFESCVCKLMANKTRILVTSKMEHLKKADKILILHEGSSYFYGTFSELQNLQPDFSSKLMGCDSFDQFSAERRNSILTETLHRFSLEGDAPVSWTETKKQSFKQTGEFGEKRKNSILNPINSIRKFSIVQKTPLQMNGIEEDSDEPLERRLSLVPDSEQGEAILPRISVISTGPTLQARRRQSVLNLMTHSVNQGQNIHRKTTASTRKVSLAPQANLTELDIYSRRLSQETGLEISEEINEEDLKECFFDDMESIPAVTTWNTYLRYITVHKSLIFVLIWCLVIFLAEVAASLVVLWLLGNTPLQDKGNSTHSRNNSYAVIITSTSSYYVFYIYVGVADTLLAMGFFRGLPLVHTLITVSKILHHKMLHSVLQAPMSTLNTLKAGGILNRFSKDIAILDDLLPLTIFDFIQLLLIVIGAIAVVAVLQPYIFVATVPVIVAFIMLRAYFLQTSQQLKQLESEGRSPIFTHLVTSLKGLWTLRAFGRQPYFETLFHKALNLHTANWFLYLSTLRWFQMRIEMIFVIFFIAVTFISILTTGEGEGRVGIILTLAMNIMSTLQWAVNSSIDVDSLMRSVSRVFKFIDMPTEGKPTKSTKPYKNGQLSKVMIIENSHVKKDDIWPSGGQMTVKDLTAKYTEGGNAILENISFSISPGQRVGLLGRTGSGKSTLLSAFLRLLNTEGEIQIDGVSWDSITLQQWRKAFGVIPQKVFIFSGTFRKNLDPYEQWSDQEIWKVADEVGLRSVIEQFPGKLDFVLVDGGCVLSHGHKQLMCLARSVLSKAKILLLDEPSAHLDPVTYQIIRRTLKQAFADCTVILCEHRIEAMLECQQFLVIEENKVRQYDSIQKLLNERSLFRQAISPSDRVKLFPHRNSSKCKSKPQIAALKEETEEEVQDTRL

| SMILES | EC50 [1] [nM] | EC50 [2] [nM] | Maximum % activity (with co-corrector) [3] | Emax (CSE-HRP, without co-corrector) [%] | EC50 [4] [nM] | EC50 [5] [nM] | Maximum % activity (with co-corrector) (with co-corrector (2 μM)) | Emax (without co-corrector) [%] | Emax [6] [%] | Maximum % activity (with co-corrector) [7] |
| --- | --- | --- | --- | --- | --- | --- | --- | --- | --- | --- |
| COc1ccc(C(C)(C)C)cc1CN[C@H]1[C@H](C(C)(C)C)[C@@H](C(=O)O)N(C(=O)Cc2cccc(C#N)c2)[C@H]1c1ccccc1 [II-240] | 1000 to 10000 | < 1000 | +++ (≥350) | > 200 |  |  |  |  |  |  |
| COc1ncc(C2CCC2)cc1CN[C@@H]1[C@@H](C(C)(C)C)[C@H](C(=O)O)N(C(=O)[C@@H]2CCCO2)[C@@H]1c1ccccc1Cl [III-236] |  |  |  |  | 1000 to 10000 | 1000 to 10000 | ++ (≥150 and <350) |  | < 100 |  |
| COc1ccc(C(F)(F)F)cc1CN[C@H]1[C@H](C(C)(C)C)[C@@H](C(=O)O)N(C(=O)OC(C)C)[C@H]1c1ccccc1OC [II-136] | 1000 to 10000 | 1000 to 10000 | +++ (≥350) | 100 to 200 |  |  |  |  |  |  |
| COc1ccc(C(C)(C)C)cc1CN[C@H]1[C@H](C(C)(C)C)[C@@H](C(=O)O)N(C(=O)[C@H]2OCC[C@H]2C(C)C)[C@H]1c1ccccc1 (relative stereo) [Example 23, (2S,3S,4S,5S)-3-tert-butyl-4-{[(5-tert-butyl-2-methoxyphenyl)methyl]amino}-5-phenyl-1-[(2S*,3S*)-3-(propan-2-yl)oxolane-2-carbonyl]pyrrolidine-2-carboxylic acid] |  |  |  |  | 1000 to 10000 | < 1000 | +++ (≥350) | > 200 |  |  |
| COc1ccc(C(C)(C)C)cc1CN[C@H]1[C@H](C(C)(C)C)[C@@H](C(=O)O)N(C(=O)[C@@H]2CCCCO2)[C@H]1c1ccccc1OC(F)F [Example 59, (2S,3S,4S,5S)-3-tert-butyl-4-{[(5-tert-butyl-2-methoxyphenyl)methyl]amino}-5-[2-(difluoromethoxy)phenyl]-1-[(2S)-oxane-2-carbonyl]pyrrolidine-2-carboxylic acid] |  |  |  |  | 1000 to 10000 | < 1000 | +++ (≥350) | > 200 |  |  |
| CC(C)(C)[C@@H]1[C@@H](NCc2ccc(Cl)cc2Cl)[C@@H](c2ccccc2)N(C(=O)CC2CCCC2)[C@H]1C(=O)O (racemic) [III-3] |  |  |  |  | > 10000 | 1000 to 10000 |  |  | < 100 | ++ (≥150 and <350) |
| Cn1c(=O)c2c(N[C@H]3[C@H](C(C)(C)C)[C@@H](C(=O)O)N(C(=O)C4CCCCC4)[C@H]3c3ccccc3)nccc2n(C)c1=O [III-157] |  |  |  |  | > 10000 | 1000 to 10000 | ++ (≥150 and <350) |  | < 100 |  |
| COc1ccc(C(C)(C)C)cc1CN[C@H]1[C@H](C(C)(C)C)[C@@H](C(=O)O)N(C(=O)c2ccc3cccc(F)c3n2)[C@H]1c1ccccc1 [Example I-93] |  |  |  |  | 1000 to 10000 | 1000 to 10000 | +++ (≥350) | 100 to 200 |  |  |
| CCc1ccccc1[C@H]1[C@@H](NCc2cc(C3CCC3)cnc2OC)[C@H](C(C)(C)C)[C@@H](C(=O)O)N1C(=O)[C@@H]1CCCO1 [Example 111, (2S,3S,4S,5S)-3-tert-butyl-4-{[(5-cyclobutyl-2-methoxypyridin-3-yl)methyl]amino}-5-(2-ethylphenyl)-1-[(2S)-oxolane-2-carbonyl]pyrrolidine-2-carboxylic acid] |  |  |  |  | 1000 to 10000 | 1000 to 10000 | +++ (≥350) | > 200 |  |  |
| Cc1cc(C(F)(F)F)cc(N[C@H]2[C@H](C(C)(C)C)[C@@H](C(=O)O)N(C(=O)OC(C)C)[C@H]2c2ccccc2C(C)C)n1 [Example 82, (2S,3S,4S,5S)-3-tert-butyl-4-{[6-methyl-4-(trifluoromethyl)pyridin-2-yl]amino}-1-{[(propan-2-yl)oxy]carbonyl}-5-[2-(propan-2-yl)phenyl]pyrrolidine-2-carboxylic acid] |  |  |  |  | 1000 to 10000 | 1000 to 10000 | ++ (≥150 and <350) | < 100 |  |  |
| COc1ccc(C2(C)CCC2)cc1CN[C@H]1[C@H](C(C)(C)C)[C@@H](C(=O)O)N(C(=O)OC(C)C)[C@H]1c1cccnc1N(C)C [Example 80, (2S,3S,4S,5S)-3-tert-butyl-5-[2-(dimethylamino)pyridin-3-yl]-4-({[2-methoxy-5-(1-methylcyclobutyl)phenyl]methyl}amino)-1-{[(propan-2-yl)oxy]carbonyl}pyrrolidine-2-carboxylic acid] |  |  |  |  | 1000 to 10000 | 1000 to 10000 | +++ (≥350) | > 200 |  |  |
| COc1ccc(C(C)(C)C)cc1CN[C@H]1[C@H](C(C)(C)C)[C@@H](C(=O)O)N(C(=O)Cc2ccc(F)c(F)c2)[C@H]1c1ccccc1 [III-172] |  |  |  |  | 1000 to 10000 | < 1000 | +++ (≥350) |  | 100 to 200 |  |
| COc1ccc(C23CC(C2)C3)cc1CN[C@H]1[C@H](C(C)(C)C)[C@@H](C(=O)O)N(C(=O)C2CCCCC2)[C@H]1c1cccnc1OC [II-486] |  |  |  |  | 1000 to 10000 | < 1000 |  |  | > 200 | +++ (≥350) |

Second part, the molecule after the results:

| EC50 [1] [nM] | EC50 [2] [nM] | Maximum % activity (with co-corrector) [3] | Emax (CSE-HRP, without co-corrector) [%] | EC50 [4] [nM] | EC50 [5] [nM] | Maximum % activity (with co-corrector) (with co-corrector (2 μM)) | Emax (without co-corrector) [%] | Emax [6] [%] | Maximum % activity (with co-corrector) [7] | SMILES |
| --- | --- | --- | --- | --- | --- | --- | --- | --- | --- | --- |
|  |  |  |  | 1000 to 10000 | 1000 to 10000 | +++ (≥350) | > 200 |  |  | COc1ncc(C(C)(C)C)cc1CN[C@H]1[C@H](C(C)(C)C)[C@@H](C(=O)O)N(C(=O)C2CCCCC2)[C@H]1c1ccccc1 [Example 27, (2S,3S,4S,5S)-3-tert-butyl-4-{[(5-tert-butyl-2-methoxypyridin-3-yl)methyl]amino}-1-(cyclohexanecarbonyl)-5-phenylpyrrolidine-2-carboxylic acid] |
| 1000 to 10000 | 1000 to 10000 | +++ (≥350) | 100 to 200 |  |  |  |  |  |  | COc1ccc(C2=CCOC2)cc1CN[C@H]1[C@H](C(C)(C)C)[C@@H](C(=O)O)N(C(=O)C2CCCCC2)[C@H]1c1ccccc1 [II-293] |
|  |  |  |  | 1000 to 10000 | 1000 to 10000 |  |  | < 100 | ++ (≥150 and <350) | COc1cccc(CN[C@@H]2[C@@H](C(C)(C)C)[C@H](C(=O)O)N(C(=O)C3CCCCC3)[C@@H]2c2ccccc2)n1 (racemic) [III-19] |
|  |  |  |  | 1000 to 10000 | 1000 to 10000 | +++ (≥350) | < 100 |  |  | COc1c(C#N)c(N[C@H]2[C@H](C(C)(C)C)[C@@H](C(=O)O)N(C(=O)C3CCCCC3)[C@H]2c2ccccc2)nc2ccccc12 [Example I-55] |
|  |  |  |  | 1000 to 10000 | 1000 to 10000 |  |  | < 100 | +++ (≥350) | COc1ncc(-c2cccnc2)cc1CN[C@H]1[C@H](C(C)(C)C)[C@@H](C(=O)O)N(C(=O)C2CCCCC2)[C@H]1c1ccccc1 [II-345] |
| 1000 to 10000 | 1000 to 10000 | +++ (≥350) | < 100 |  |  |  |  |  |  | COc1cc(C(F)(F)F)ccc1CN[C@H]1[C@H](C2(C)CC2)[C@@H](C(=O)O)N(C(=O)C2CCCCC2)[C@H]1c1ccccc1 [II-303] |
|  |  |  |  | < 1000 | < 1000 |  |  | 100 to 200 | +++ (≥350) | COc1ncc(-c2ccccc2F)cc1CN[C@H]1[C@H](C(C)(C)C)[C@@H](C(=O)O)N(C(=O)C2CCCCC2)[C@H]1c1ccccc1F [II-424] |
